According to US20150315218A1, “SALTS OF PRODRUGS OF PIPERAZINE AND SUBSTITUTED PIPERIDINE ANTIVIRAL AGENTS” (Bristol-Myers Squibb Company, priority 2004, published 2015):
Counter-ions that a name gives are not always drawn. Like-named read-outs stand apart in the source and are kept apart here. Blank lines part the entries; values can stand above or below the molecule they belong to.

What was measured:
[1] = Oral dose escalation study in rats (Study D of Ica; historical Study E of IVc); format: in vivo; conditions: Sprague-Dawley, rat, plasma; for concentration at 24 h: read-out: C-24 hr; for AUC: read-out: Mean AUCtot
Description: Pharmacokinetic analysis was performed on Kinetica™.
The brain samples were blotted dry and the wet weights were recorded.

[2] = 2-week oral dose rat toxicology / TK study F; format: in vivo; conditions: rat, plasma, historical; for AUC(0-t): read-out: Mean AUC0-24 hr
Description: In the 2-week oral rat study F (n=six/sex/group), Compound IVe was administered at daily doses of 15, 75, or 200 mg/kg. […] On Day 14, AUC0-24 h values were slightly higher in females (≦644 μg*hr/ml) compared to males (526.88 μg*hr/ml) at dosages 200 mg/kg/day. The oral (PO) results from Study F are in Table 5.

Caco-2 cells = test: Hydrolysis of prodrug in Caco-2 cells; format: in vitro ADME
[3] = human
[4] = pH 7.5
[5] = rat, 10 μM

concentration at 24 h ([1]; oral, 25 mg/kg): 0.61 µM
concentration at 24 h ([1]; oral, 75 mg/kg): 5.2 µM
concentration at 24 h ([1]; oral, 200 mg/kg): 10 µM
Cmax ([1]; po, 25 mg/kg): 46 µM
Tmax ([1]; po, 25 mg/kg): 4 h
AUC ([1]; po, 25 mg/kg): 458 µM·h
Cmax ([1]; po, 75 mg/kg): 86 µM
Tmax ([1]; po, 75 mg/kg): 5 h
AUC ([1]; po, 75 mg/kg): 1070 µM·h
Cmax ([1]; po, 200 mg/kg): 42 µM
Tmax ([1]; po, 200 mg/kg): 4 h
AUC ([1]; po, 200 mg/kg): 518 µM·h
Cmax ([1]; male, po, 5 mg/kg): 29 ± 14 µM
Tmax ([1]; male, po, 5 mg/kg): 0.5 ± 0.25 h
concentration at 24 h ([1]; male, po, 5 mg/kg): 0.029 ± 0.008 µM
AUC ([1]; male, po, 5 mg/kg): 109 ± 15 µM·h
Cmax ([1]; male, po, 25 mg/kg): 98 ± 21 µM
Tmax ([1]; male, po, 25 mg/kg): 1.7 ± 2 h
concentration at 24 h ([1]; male, po, 25 mg/kg): 0.35 ± 0.13 µM
AUC ([1]; male, po, 25 mg/kg): 586 ± 53 µM·h
Cmax ([1]; male, po, 200 mg/kg): 281 ± 55 µM
Tmax ([1]; male, po, 200 mg/kg): 1.1 ± 0.8 h
concentration at 24 h ([1]; male, po, 200 mg/kg): 58 ± 36 µM
AUC ([1]; male, po, 200 mg/kg): 2920 ± 304 µM·h
SMILES: COc1cnc(-n2cnc(C)n2)c2[nH]cc(C(=O)C(=O)N3CCN(C(=O)c4ccccc4)CC3)c12 [IVc]
Cmax ([2]; rats PO 15 mg/kg (soln), 80/10/10 PEG-400/Ethanol/0.1N NaOH): 42 µM
AUC(0-t) ([2]; rats PO 15 mg/kg (soln)): 418 µM·h
Cmax ([2]; rats PO 75 mg/kg (susp)): 65 µM
AUC(0-t) ([2]; rats PO 75 mg/kg (susp)): 792 µM·h
Cmax ([2]; rats PO 200 mg/kg (susp)): 76 µM
AUC(0-t) ([2]; rats PO 200 mg/kg (susp)): 1080 µM·h

SMILES: O=C(C(=O)N1CCN(C(=O)c2ccccc2)CC1)c1cn(COP(=O)(O)O)c2c(-n3ccnn3)ncc(F)c12 [Ibb, [3-[(4-benzoylpiperazin-1-yl)(oxo)acetyl]-4-fluoro-7-(1H-1,2,3-triazol-1-yl)-1H-pyrrolo[2,3-c]pyridin-1-yl]methyl dihydrogen phosphate, L-lysine salt (1:1)]
hydrolysis to parent in Caco-2 cells (Caco-2 cells): completely hydrolyzed

conversion of prodrug to parent in blood containing EDTA [3]: < 2%
Icb ([3]; 0 min, 10 μM): 11 µM
Icb ([3]; 15 min): 11 µM
Icb ([3]; 30 min): 13 µM
Icb ([3]; 45 min, 10 μM): 12 µM
Icb ([3]; 60 min, 10 μM): 11 µM
Icb ([3]; 90 min, 10 μM): 11 µM
Icb ([4]; 0 min, 10 μM): 11 µM
Icb ([4]; 15 min): 11 µM
Icb ([4]; 30 min): 11 µM
Icb ([4]; 45 min, 10 μM): 11 µM
Icb ([4]; 60 min, 10 μM): 10 µM
Icb ([4]; 90 min, 10 μM): 11 µM
stability / conversion of prodrug to parent in Tris-HCl buffer ([4]; 90 min): less than 2%
Icb ([5]; 0 min): 7.6 µM
Icb ([5]; 15 min): 6.5 µM
Icb ([5]; 90 min): 2.1 µM
SMILES: COc1cnc(-n2cnc(C)n2)c2c1c(C(=O)C(=O)N1CCN(C(=O)c3ccccc3)CC1)cn2COP(=O)(O)O [Icb, [3-[(4-benzoylpiperazin-1-yl)(oxo)acetyl]-4-methoxy-7-(3-methyl-1H-1,2,4-triazol-1-yl)-1H-pyrrolo[2,3-c]pyridin-1-yl]methyl dihydrogen phosphate, 2-amino-2-(hydroxymethyl)propane-1,3-diol salt (1:1)]
